Experimental data from patent publication US10953027B2, “Active agents and methods of their use for the treatment of metabolic disorders and nonalcoholic fatty liver disease” (Flagship Pioneering Innovations V, Inc., priority 2018, dated 2021).

Key:
Format in all cases: in vitro ADME
[1] = Assay 2. Stability in Simulated Intestinal Fluid (SIF); settings: 1 μM, 37° C., SIF pH 6.7 with pancreatin
Method in brief: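 Acylated compounds at 1 μM (from 1 mM DMSO stock) in fresh SIF: FaSSIF with pancreatin in pH 6.7 phosphate buffer, agitated at 37 °C. Aliquots from T0 onward quenched with 1 volume acetonitrile; LC/MS gives degradation rates.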

[2] = Assay 1. Stability in Simulated Gastric Fluid (SGF); settings: 1 μM, 37° C., SGF pH 1.6 with pepsin
Method in brief: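 Acylated compounds at a final 1 μM (diluted from 1 mM DMSO stock) were incubated at 37 °C in SGF of pH 1.6 NaCl buffer with FaSSIF powder and 0.1 mg/mL pepsin. Aliquots were quenched with acetonitrile at T0 and regular intervals, and degradation rates were determined by LC/MS.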

[3] = Assay 3. Fecal Incubation Stability; settings: 1 or 10 μM, human fecal slurry, anaerobic

Compound | Assay 2 (SIF) (% @ Remaining 4 hours) [1] | Assay 1 (SGF) (% Remaining @ 1 hours) [2] | Assay 3 (% Remaining at 24 h) [3]
CCC(=O)O[C@@H]1[C@@H](OC(=O)CC)[C@H](OC(=O)CCc2c[nH]c3ccccc23)OC[C@@H]1OC(=O)CC [Compound 107, (2S,3R,4S,5S)-3,4,5-tris(propanoyloxy)oxan-2-yl 3-(1H-indol-3-yl)propanoate] | A (A: <25% of the tested compound remaining) | C (C: >75% of the tested compound remaining) | A (A: <25% of the tested compound remaining)
CCC(=O)O[C@H]1O[C@H](C(=O)O)[C@@H](OC(=O)CC)[C@H](OC(=O)CC)[C@H]1OC(=O)CC [Compound 79, (2S,3S,4S,5R,6R)-3,4,5,6-tetrakis(propanoyloxy)oxane-2-carboxylic Acid] | A (A: <25% of the tested compound remaining) | C (C: >75% of the tested compound remaining) | A (A: <25% of the tested compound remaining)
CCC(=O)OC[C@H]1O[C@H](OC)[C@H](OC(=O)CC)[C@@H](OC(=O)CC)[C@H]1OC(=O)CC [Compound 90, [(2R,3S,4S,5R,6S)-6-methoxy-3,4,5-tris(propanoyloxy)oxan-2-yl]methyl Propanoate] | A (A: <25% of the tested compound remaining) | C (C: >75% of the tested compound remaining) | A (A: <25% of the tested compound remaining)
C[C@@H]1OC(O)[C@@H](OC(=O)CCc2c[nH]c3ccccc23)[C@H](OC(=O)CCc2c[nH]c3ccccc23)[C@@H]1OC(=O)CCc1c[nH]c2ccccc12 (stereo partly drawn) [Compound 95, (2S,3R,4R,5S)-6-hydroxy-4,5-bis({[3-(1H-indol-3-yl)propanoyl]oxy})-2-methyloxan-3-yl 3-(1H-indol-3-yl)propanoate] | A (A: <25% of the tested compound remaining) | C (C: >75% of the tested compound remaining) | C (C: >75% of the tested compound remaining)
CO[C@H]1O[C@H](COC(C)=O)[C@@H](OC(C)=O)[C@H](OC(C)=O)[C@@H]1OC(C)=O [Compound 193, (2R,3R,4S,5S,6S)-2-(acetoxymethyl)-6-methoxytetrahydro-2H-pyran-3,4,5-triyl Triacetate] | C (C: >75% of the tested compound remaining) | C (C: >75% of the tested compound remaining) | B (B: 25-75% of the tested compound remaining)
CCC(=O)Oc1cc(OC(=O)CC)c2c(c1)O[C@H](c1ccc(OC(=O)CC)c(OC(=O)CC)c1)[C@H](OC(=O)CC)C2 [Compound 236, (2R,3R)-2-[3,4-bis(propanoyloxy)phenyl]-5,7-bis(propanoyloxy)-3,4-dihydro-2H-1-benzopyran-3-yl Propanoate] | A (A: <25% of the tested compound remaining) | B (B: 25-75% of the tested compound remaining) | A (A: <25% of the tested compound remaining)
CCC(=O)Oc1ccc(-c2cc(=O)c3c(O)cc(OC(=O)CC)cc3o2)cc1 [Compound 199, 5-hydroxy-4-oxo-2-[4-(propanoyloxy)phenyl]-4H-chromen-7-yl Propanoate] | A (A: <25% of the tested compound remaining) | B (B: 25-75% of the tested compound remaining) | A (A: <25% of the tested compound remaining)
O=C(CCc1c[nH]c2ccccc12)Oc1ccc(/C=C/c2cc(OC(=O)CCc3c[nH]c4ccccc34)cc(OC(=O)CCc3c[nH]c4ccccc34)c2)cc1 [Compound 259, 4-[(1E)-2-[3,5-bis({[3-(1H-indol-3-yl)propanoyl]oxy})phenyl]ethenyl]phenyl 3-(1H-indol-3-yl)propanoate] | C (C: >75% of the tested compound remaining) | C (C: >75% of the tested compound remaining) | B (B: 25-75% of the tested compound remaining)
CCCC(=O)Oc1ccc(-c2cc(=O)c3c(OC(=O)CCC)cc(OC(=O)CCC)cc3o2)cc1 [Compound 201, 5-(butanoyloxy)-2-[4-(butanoyloxy)phenyl]-4-oxo-4H-chromen-7-yl Butanoate] | A (A: <25% of the tested compound remaining) | B (B: 25-75% of the tested compound remaining) | A (A: <25% of the tested compound remaining)
CCC(=O)O[C@@H]1OC[C@@H](OC(=O)CC)[C@@H](OC(=O)CC)[C@H]1OC(=O)CC [Compound 136, (2S,3R,4R,5R)-3,4,5-tris(propanoyloxy)oxan-2-yl Propanoate] | A (A: <25% of the tested compound remaining) | C (C: >75% of the tested compound remaining) | A (A: <25% of the tested compound remaining)
CCC(=O)O[C@@H]1[C@@H](OC(=O)CC)[C@H](OC(=O)Cc2c[nH]c3ccccc23)OC[C@H]1OC(=O)CC [Compound 109, (2S,3R,4S,5R)-2-{[2-(1H-indol-3-yl)acetyl]oxy}-4,5-bis(propanoyloxy)oxan-3-yl Propanoate] | A (A: <25% of the tested compound remaining) | C (C: >75% of the tested compound remaining) | A (A: <25% of the tested compound remaining)
CCC(=O)O[C@H]1[C@H](OC(=O)Cc2c[nH]c3ccccc23)OC[C@@H](OC(=O)CC)[C@H]1OC(=O)CC [Compound 138, (2S,3R,4R,5R)-2-{[2-(1H-indol-3-yl)acetyl]oxy}-4,5-bis(propanoyloxy)oxan-3-yl Propanoate] | A (A: <25% of the tested compound remaining) | C (C: >75% of the tested compound remaining) | A (A: <25% of the tested compound remaining)
CCC(=O)OC[C@H]1O[C@H](OC)[C@H](OC(=O)CC)[C@@H](OC(=O)CC)[C@@H]1OC(=O)CC [Compound 88, [(2R,3R,4S,5R,6S)-6-methoxy-3,4,5-tris(propanoyloxy)oxan-2-yl]methyl Propanoate] | A (A: <25% of the tested compound remaining) | C (C: >75% of the tested compound remaining) | A (A: <25% of the tested compound remaining)
CCC(=O)OC[C@H]1O[C@@H](OC(=O)Cc2c[nH]c3ccccc23)[C@H](OC(=O)CC)[C@@H](OC(=O)CC)[C@@H]1OC(=O)CC [Compound 143, [(2R,3R,4S,5R,6S)-6-{[2-(1H-indol-3-yl)acetyl]oxy}-3,4,5-tris(propanoyloxy)oxan-2-yl]methyl Propanoate] | A (A: <25% of the tested compound remaining) | C (C: >75% of the tested compound remaining) | A (A: <25% of the tested compound remaining)
